Data on 25 molecules can be found in ChEMBL document CHEMBL1138114, “Convergent, parallel synthesis of a series of beta-substituted 1,2,4-oxadiazole butanoic acids as potent and selective alpha(v)beta3 receptor antagonists” (Bioorg Med Chem Lett, 2006).

Data set [1] deals with T1, Integrin alpha-V/beta-3 (Homo sapiens, UniProt P05106+P06756). The data set can be described thus: Inhibition of Integrin alphav-beta3 receptor by SPRA assay. The class given is protein-complex assay.
Data set [2] concerns the target Integrin alpha-IIb/beta-3 (Homo sapiens, UniProt P05106+P08514). The data set can be described thus: Inhibition of Integrin alpha-2b-beta-3 receptor by SPRA assay. It counts as protein-complex assay.
Data set [3] has as its target T1, Integrin alpha-V/beta-3. Nature of the data set: Inhibition of Integrin alphav-beta3 receptor expressed in HEK293 cells. It counts as cell-based.
In the next data set the target is Integrin alpha-V/beta-6 (Homo sapiens, UniProt P06756+P18564). The data set can be described thus: Inhibition of Integrin alphav-beta6 receptor expressed in HT29 cell line. It counts as cell-based, HT-29.
Chain of Integrin alpha-V/beta-6 (P06756 31-889 limits assumed): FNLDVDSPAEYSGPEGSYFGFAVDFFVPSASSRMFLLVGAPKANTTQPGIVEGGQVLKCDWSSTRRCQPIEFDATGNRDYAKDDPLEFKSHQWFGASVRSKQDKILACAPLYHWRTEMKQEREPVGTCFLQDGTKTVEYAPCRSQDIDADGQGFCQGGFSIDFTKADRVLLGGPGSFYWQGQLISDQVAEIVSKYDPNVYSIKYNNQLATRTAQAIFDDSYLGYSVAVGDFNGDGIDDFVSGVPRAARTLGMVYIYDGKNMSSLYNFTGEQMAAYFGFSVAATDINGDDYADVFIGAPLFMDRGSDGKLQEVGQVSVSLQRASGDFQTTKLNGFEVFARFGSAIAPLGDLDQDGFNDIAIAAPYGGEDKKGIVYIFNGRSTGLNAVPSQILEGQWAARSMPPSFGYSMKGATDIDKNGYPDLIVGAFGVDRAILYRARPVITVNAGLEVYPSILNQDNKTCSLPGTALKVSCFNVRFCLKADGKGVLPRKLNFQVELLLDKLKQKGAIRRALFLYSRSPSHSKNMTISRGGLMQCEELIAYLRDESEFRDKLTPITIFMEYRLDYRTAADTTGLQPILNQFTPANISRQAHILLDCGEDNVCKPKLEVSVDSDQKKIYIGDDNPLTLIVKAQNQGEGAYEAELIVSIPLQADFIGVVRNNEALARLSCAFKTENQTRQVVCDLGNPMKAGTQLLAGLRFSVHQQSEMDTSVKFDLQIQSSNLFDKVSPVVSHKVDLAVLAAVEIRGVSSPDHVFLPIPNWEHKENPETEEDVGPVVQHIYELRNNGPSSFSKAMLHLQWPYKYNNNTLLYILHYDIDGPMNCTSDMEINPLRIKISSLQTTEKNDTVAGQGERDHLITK
Chain of Integrin alpha-V/beta-6 (P06756 891-1048 limits assumed): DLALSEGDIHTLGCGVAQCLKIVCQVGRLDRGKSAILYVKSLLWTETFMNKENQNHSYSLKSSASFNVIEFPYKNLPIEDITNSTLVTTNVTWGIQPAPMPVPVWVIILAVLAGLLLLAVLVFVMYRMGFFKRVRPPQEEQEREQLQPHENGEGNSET
Chain of Integrin alpha-V/beta-6 (P18564 22-788 limits assumed): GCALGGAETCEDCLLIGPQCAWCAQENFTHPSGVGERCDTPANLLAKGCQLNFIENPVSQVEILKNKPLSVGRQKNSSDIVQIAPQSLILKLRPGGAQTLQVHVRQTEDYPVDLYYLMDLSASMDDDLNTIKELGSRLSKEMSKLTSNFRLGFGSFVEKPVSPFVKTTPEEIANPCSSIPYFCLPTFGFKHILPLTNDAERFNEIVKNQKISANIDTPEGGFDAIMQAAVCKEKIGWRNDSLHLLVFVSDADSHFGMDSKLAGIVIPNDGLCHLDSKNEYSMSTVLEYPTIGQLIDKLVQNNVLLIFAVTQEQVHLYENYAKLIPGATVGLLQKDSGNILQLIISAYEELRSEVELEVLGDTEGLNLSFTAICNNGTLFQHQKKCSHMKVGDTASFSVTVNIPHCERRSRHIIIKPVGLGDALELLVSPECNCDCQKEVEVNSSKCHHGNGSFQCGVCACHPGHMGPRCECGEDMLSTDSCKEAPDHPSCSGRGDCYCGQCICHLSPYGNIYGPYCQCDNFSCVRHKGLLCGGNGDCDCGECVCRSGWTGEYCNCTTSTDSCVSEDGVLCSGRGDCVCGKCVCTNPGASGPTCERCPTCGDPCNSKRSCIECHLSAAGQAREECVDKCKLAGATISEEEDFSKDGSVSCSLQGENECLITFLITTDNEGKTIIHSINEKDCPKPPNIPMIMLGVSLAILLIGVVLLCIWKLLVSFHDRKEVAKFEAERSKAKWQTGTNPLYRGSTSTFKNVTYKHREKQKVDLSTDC
Another data set addresses Integrin alpha-V/beta-5 (Homo sapiens, UniProt P06756+P18084). Nature of the data set: Inhibition of Integrin alphav-beta5 receptor expressed in HEK293 cell line. It counts as cell-based.
Another data set has as its target Integrin alpha-V/beta-1 (Homo sapiens, UniProt P05556+P06756). Nature of the data set: Inhibition of Integrin alphav-beta1 receptor expressed in HEK293 cell line. The class given is cell-based.
Data set [4] in a line: Half life in rat at 5 mg/kg, iv. The class given is ADME, organism-based. Further details: dose 5 mg/kg, route intravenous. Conditions: in vivo.
Data set [5] in a line: Volume of distribution in rat at 5 mg/kg, iv. The class given is ADME, organism-based. Further details: dose 5 mg/kg, route intravenous. To be noted: in vivo, read-out: Vdss.
The nature of data set [6]: Clearance in rat at 5 mg/kg, iv. It counts as ADME, organism-based. On the set-up: dose 5 mg/kg, route intravenous. Conditions: in vivo.
Another data set has as its system Rattus norvegicus. The data set can be described thus: AUC/dose(mg/kg) in orally dosed rat at 10 mg/kg. On the set-up: dose 10 mg/kg, route oral. The class given is ADME, organism-based, Plasma. To be noted: in vivo, po.
A short description of data set [7]: Bioavailability in rat at 5 mg/kg, iv. It counts as ADME, organism-based. Conditions: in vivo.

Chain of Integrin alpha-V/beta-5 (P06756 31-889 limits assumed): as the sequence (P06756 31-889 limits assumed) above
Chain of Integrin alpha-V/beta-5 (P06756 891-1048 limits assumed): as the sequence (P06756 891-1048 limits assumed) above
Chain of Integrin alpha-V/beta-5 (P18084 24-799 limits assumed): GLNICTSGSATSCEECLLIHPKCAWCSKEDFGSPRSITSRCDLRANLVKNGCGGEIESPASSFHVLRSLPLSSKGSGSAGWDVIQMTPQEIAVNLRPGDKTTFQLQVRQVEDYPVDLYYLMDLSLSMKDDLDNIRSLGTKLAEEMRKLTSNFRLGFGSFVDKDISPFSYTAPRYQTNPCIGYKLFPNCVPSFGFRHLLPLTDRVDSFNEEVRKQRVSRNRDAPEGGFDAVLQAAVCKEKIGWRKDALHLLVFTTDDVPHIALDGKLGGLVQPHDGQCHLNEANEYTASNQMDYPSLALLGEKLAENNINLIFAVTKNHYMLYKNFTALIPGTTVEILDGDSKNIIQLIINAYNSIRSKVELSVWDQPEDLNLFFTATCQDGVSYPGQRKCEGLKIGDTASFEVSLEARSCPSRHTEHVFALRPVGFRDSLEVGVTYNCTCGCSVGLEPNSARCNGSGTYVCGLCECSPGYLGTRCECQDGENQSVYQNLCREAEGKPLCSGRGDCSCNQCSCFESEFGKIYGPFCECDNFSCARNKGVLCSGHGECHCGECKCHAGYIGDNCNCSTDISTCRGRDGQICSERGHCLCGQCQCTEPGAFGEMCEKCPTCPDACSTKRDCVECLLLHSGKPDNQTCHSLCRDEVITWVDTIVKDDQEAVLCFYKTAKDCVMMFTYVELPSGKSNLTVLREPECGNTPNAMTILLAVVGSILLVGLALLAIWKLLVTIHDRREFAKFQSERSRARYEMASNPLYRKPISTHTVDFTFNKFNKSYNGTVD
Chain of Integrin alpha-V/beta-1 (P05556 21-798 limits assumed): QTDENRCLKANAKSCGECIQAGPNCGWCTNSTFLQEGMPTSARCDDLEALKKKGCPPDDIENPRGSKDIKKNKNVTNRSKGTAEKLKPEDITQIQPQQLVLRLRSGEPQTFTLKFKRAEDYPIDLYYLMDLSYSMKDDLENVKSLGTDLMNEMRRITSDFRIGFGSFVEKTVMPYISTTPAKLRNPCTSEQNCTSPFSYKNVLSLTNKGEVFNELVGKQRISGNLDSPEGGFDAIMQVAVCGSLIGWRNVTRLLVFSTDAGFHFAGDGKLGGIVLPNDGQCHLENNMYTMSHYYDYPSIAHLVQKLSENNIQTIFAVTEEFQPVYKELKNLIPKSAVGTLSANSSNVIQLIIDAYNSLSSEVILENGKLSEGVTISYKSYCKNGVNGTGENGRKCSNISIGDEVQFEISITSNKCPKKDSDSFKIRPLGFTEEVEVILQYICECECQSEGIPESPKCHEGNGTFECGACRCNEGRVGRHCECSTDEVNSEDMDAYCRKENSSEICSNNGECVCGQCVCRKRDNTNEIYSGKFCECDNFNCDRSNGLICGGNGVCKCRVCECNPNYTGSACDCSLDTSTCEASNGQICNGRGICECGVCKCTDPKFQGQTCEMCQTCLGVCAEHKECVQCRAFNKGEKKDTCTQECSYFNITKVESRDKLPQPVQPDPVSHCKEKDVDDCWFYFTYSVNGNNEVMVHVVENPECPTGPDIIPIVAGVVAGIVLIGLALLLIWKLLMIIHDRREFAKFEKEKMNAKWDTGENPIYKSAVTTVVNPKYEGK
Chain of Integrin alpha-V/beta-1 (P06756 31-889 limits assumed): as the sequence (P06756 31-889 limits assumed) above
Chain of Integrin alpha-V/beta-1 (P06756 891-1048 limits assumed): as the sequence (P06756 891-1048 limits assumed) above
T1 sequence (P05106 27-788 limits assumed): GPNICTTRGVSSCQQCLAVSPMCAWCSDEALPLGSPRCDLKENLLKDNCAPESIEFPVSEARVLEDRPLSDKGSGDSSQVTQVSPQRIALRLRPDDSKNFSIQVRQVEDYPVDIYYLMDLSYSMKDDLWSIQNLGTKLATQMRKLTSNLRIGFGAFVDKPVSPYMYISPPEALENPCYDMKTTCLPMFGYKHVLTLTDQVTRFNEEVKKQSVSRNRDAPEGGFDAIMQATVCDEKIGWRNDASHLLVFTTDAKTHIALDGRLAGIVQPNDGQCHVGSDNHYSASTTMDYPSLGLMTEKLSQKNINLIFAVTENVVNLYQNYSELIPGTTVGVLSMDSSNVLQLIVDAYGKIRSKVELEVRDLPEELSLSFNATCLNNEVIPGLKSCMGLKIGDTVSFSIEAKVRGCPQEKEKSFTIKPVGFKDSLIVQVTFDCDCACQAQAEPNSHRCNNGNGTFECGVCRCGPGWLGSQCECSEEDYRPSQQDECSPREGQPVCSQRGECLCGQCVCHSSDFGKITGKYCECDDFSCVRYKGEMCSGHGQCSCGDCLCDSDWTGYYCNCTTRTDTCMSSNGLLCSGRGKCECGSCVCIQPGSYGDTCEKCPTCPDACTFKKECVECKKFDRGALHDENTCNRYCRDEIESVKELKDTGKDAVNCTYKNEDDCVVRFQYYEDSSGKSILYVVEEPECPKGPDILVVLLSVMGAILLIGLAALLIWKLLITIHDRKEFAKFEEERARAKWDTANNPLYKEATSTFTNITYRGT
T1 sequence (P06756 31-889 limits assumed): as the sequence (P06756 31-889 limits assumed) above
T1 sequence (P06756 891-1048 limits assumed): as the sequence (P06756 891-1048 limits assumed) above

Regarding `O=C(O)C[C@H](Cc1nc(CCCCNc2ccccn2)no1)c1ccc2c(c1)OCO2`, the IC50 on Integrin alpha-V/beta-3 [1] was 2.4 nM; in [2] it was 126 nM.

`O=C(O)C[C@H](Cc1nc(CCCCNc2cc(N3CCOCC3)ccn2)no1)c1ccc2c(c1)OCO2`: the IC50 against Integrin alpha-V/beta-3 [3] amounted to 0.74 nM; against Integrin alpha-V/beta-3 [1], 0.78 nM; against Integrin alpha-V/beta-6 it was 4360 nM; in data set [2] it was 17 nM; against Integrin alpha-V/beta-5 it was 4.6 nM.

Regarding `O=C(O)CC(Cc1nc(CCCc2ccc3c(n2)NCCC3)no1)c1ccc2ncoc2c1` (stereo not given), the IC50 came to 0.32 nM against Integrin alpha-V/beta-3 [3]; 0.5 nM at Integrin alpha-V/beta-3 [1]; 486 nM against Integrin alpha-V/beta-6; 2.7 nM on Integrin alpha-V/beta-1; 65.4 nM in data set [2].

As for `Cc1ccnc(NCCCCc2noc(C[C@@H](CC(=O)O)c3ccc4c(c3)OCO4)n2)c1`, the IC50 against Integrin alpha-V/beta-3 [1] stood at 2 nM; in data set [2], 91 nM.

For the molecule `O=C(O)CC(Cc1nc(CCCc2ccc3c(n2)NCCC3)no1)c1ccc2c(c1)OCC2` (stereo not given), the half-life in [4] is 1.2 h. Moreover, the IC50 on Integrin alpha-V/beta-3 [3] worked out at 0.63 nM; at Integrin alpha-V/beta-3 [1], 2.1 nM; on Integrin alpha-V/beta-6 it was 3020 nM; on Integrin alpha-V/beta-1, 9.7 nM; in data set [2], 224 nM. In data set [5], the Vd was 0.803 L/kg. The molecule also had a clearance in [6] of 17.3 mL/min/kg. Besides, the AUC/dose with Rattus norvegicus is 970 ng·h/mL/(mg/kg). Further, the bioavailability in data set [7] was determined as 63%.

`CC(C)(CC(=O)O)Cc1nc(CCCc2ccc3c(n2)NCCC3)no1`: the IC50 at Integrin alpha-V/beta-3 [1] is 20 nM; in data set [2], 12600 nM.

As for `CNc1cccc(CCCc2noc(CC(CC(=O)O)c3ccc4c(c3)OCO4)n2)n1` (stereo not given), the IC50 is 3.2 nM at Integrin alpha-V/beta-3 [3]; 2.1 nM on Integrin alpha-V/beta-3 [1]; over 10000 nM against Integrin alpha-V/beta-6; 278 nM in data set [2]; 16 nM at Integrin alpha-V/beta-5.

Consider `O=C(O)CC(Cc1nc(CCCc2ccc3c(n2)NCCC3)no1)c1cnc(C2CC2)s1` (stereo not given), for which, in data set [4], the half-life was 1.8 h. Moreover, the IC50 on Integrin alpha-V/beta-3 [3] worked out at 0.6 nM; against Integrin alpha-V/beta-3 [1] it was 1.43 nM; against Integrin alpha-V/beta-6, 1590 nM; in data set [2], 168 nM; against Integrin alpha-V/beta-5 it was 1.2 nM. Besides, the Vd in data set [5] was 0.497 L/kg. In data set [6], this molecule displayed a clearance of 5.56 mL/min/kg. For the same molecule, the AUC/dose in the data set on Rattus norvegicus was 3050 ng·h/mL/(mg/kg). In addition, the bioavailability in [7] worked out at 96%.

As to `CC(CC(=O)O)(Cc1nc(CCCc2ccc3c(n2)NCCC3)no1)c1cccnc1` (stereo not given), the IC50 stood at 3.6 nM against Integrin alpha-V/beta-3 [1] and 950 nM in data set [2].

As to `O=C(O)CC(Cc1nc(CCCc2ccc3c(n2)NCCC3)no1)c1cccc(F)c1` (stereo not given), the IC50 at Integrin alpha-V/beta-3 [3] came out at 1.1 nM; against Integrin alpha-V/beta-3 [1], 1.75 nM; at Integrin alpha-V/beta-6 it was 3730 nM; in [2] it was 419 nM; against Integrin alpha-V/beta-5 it was 3.7 nM.

On to `O=C(O)CC1(Cc2nc(CCCc3ccc4c(n3)NCCC4)no2)CCCC1`, for which the IC50 was found to be 9.5 nM against Integrin alpha-V/beta-3 [1] and 8130 nM in data set [2].

On to `C#CC(CC(=O)O)Cc1nc(CCCc2ccc3c(n2)NCCC3)no1` (stereo not given), for which the IC50 against Integrin alpha-V/beta-3 [3] came to 4 nM; on Integrin alpha-V/beta-3 [1] it was 8.7 nM; at Integrin alpha-V/beta-6 it was 6240 nM; in data set [2], 1220 nM; at Integrin alpha-V/beta-5 it was 4 nM.

On to `CC(CC(=O)O)Cc1nc(CCCc2ccc3c(n2)NCCC3)no1` (stereo not given), for which the figures for the IC50 (against Integrin alpha-V/beta-3 [1]; in data set [2]) were 12 nM and 9300 nM, respectively.

Consider `O=C(O)CC(Cc1nc(CCCc2ccc3c(n2)NCCC3)no1)c1ccccc1` (stereo not given), for which the IC50 worked out at 1.8 nM against Integrin alpha-V/beta-3 [1] and 747 nM in data set [2].

For `O=C(O)C[C@H](Cc1nc(CCCc2ccc3c(n2)NCCC3)no1)c1ccc2c(c1)OCO2`, in data set [4], the half-life is 1.4 h. Further, the IC50 on Integrin alpha-V/beta-3 [3] was 0.65 nM; against Integrin alpha-V/beta-3 [1] it was 0.4 nM; against Integrin alpha-V/beta-6, 2660 nM; against Integrin alpha-V/beta-1, 2.6 nM; in data set [2], 27 nM; on Integrin alpha-V/beta-5, 1.7 nM. Moreover, the Vd in data set [5] was 0.733 L/kg. The molecule further displayed a clearance in [6] of 10.9 mL/min/kg. Also, the AUC/dose in the data set on Rattus norvegicus is 1500 ng·h/mL/(mg/kg). Also, in data set [7], the bioavailability was 95%.

Consider `O=C(O)CC(Cc1nc(CCCc2ccc3c(n2)NCCC3)no1)c1cnn(-c2ccccc2)c1` (stereo not given), for which the IC50 amounted to 1.2 nM on Integrin alpha-V/beta-3 [1] and 216 nM in data set [2].

On to `O=C(O)CCCc1nc(CCCc2ccc3c(n2)NCCC3)no1`, for which the IC50 is 160 nM at Integrin alpha-V/beta-3 [1] and 32500 nM in data set [2].

On to `O=C(O)CC(Cc1nc(CCCc2ccc3c(n2)NCCC3)no1)c1cnc2ccccc2c1` (stereo not given), for which the half-life in data set [4] was 1.1 h. Also, the IC50 on Integrin alpha-V/beta-3 [1] was found to be 0.65 nM; in [2], 18 nM. Further, the Vd in data set [5] worked out at 0.622 L/kg. Further, the clearance in data set [6] is 19.1 mL/min/kg. In addition, the AUC/dose in the data set with Rattus norvegicus was 600 ng·h/mL/(mg/kg). In addition, the bioavailability in data set [7] stood at 66%.

Regarding `COc1ccc(C(CC(=O)O)Cc2nc(CCCc3ccc4c(n3)NCCC4)no2)cn1` (stereo not given), the half-life in [4] is 1.1 h. Further, the IC50 is 1 nM on Integrin alpha-V/beta-3 [1] and 187 nM in data set [2]. Moreover, the Vd in data set [5] was found to be 0.694 L/kg. Further, the clearance in data set [6] was 12 mL/min/kg. Further, the AUC/dose in the data set with Rattus norvegicus is 1910 ng·h/mL/(mg/kg). The molecule further yielded a bioavailability in [7] of 100%.

Molecule `CN1CCNc2nc(CCCc3noc(CC(CC(=O)O)c4ccc5c(c4)OCO5)n3)ccc21` (stereo not given) gave a half-life in [4] of 0.93 h. The same molecule showed an IC50 against Integrin alpha-V/beta-3 [1] of 1.7 nM. Further, the Vd in [5] came to 0.447 L/kg. The same molecule showed a clearance in data set [6] of 18.2 mL/min/kg. The AUC/dose with Rattus norvegicus is 710 ng·h/mL/(mg/kg). Besides, in data set [7], the bioavailability came to 77%.

As to `CC(CC(=O)O)(Cc1nc(CCCc2ccc3c(n2)NCCC3)no1)c1ccccc1` (stereo not given), the IC50 at Integrin alpha-V/beta-3 [1] is 116 nM; in [2], 35800 nM.

Consider `O=C(O)CC(Cc1nc(CCCc2ccc3c(n2)NCCC3)no1)c1cccnc1` (stereo not given), for which the IC50 on Integrin alpha-V/beta-3 [3] is 0.77 nM; against Integrin alpha-V/beta-3 [1] it was 1.6 nM; against Integrin alpha-V/beta-6, 2420 nM; in data set [2], 474 nM; against Integrin alpha-V/beta-5 it was 3.3 nM.

For `Cc1ncc(C(CC(=O)O)Cc2nc(CCCc3ccc4c(n3)NCCC4)no2)s1` (stereo not given), the IC50 against Integrin alpha-V/beta-3 [1] was 1.28 nM; in data set [2] it was 423 nM.

`COc1ccnc(NCCCCc2noc(C[C@@H](CC(=O)O)c3ccc4c(c3)OCO4)n2)c1`: the values for the IC50 (against Integrin alpha-V/beta-3 [1]; in [2]) were 1.1 nM and 64 nM, respectively.

In [4], `O=C(O)C[C@H](Cc1nc(CCCCNc2cc(N3CCSCC3)ccn2)no1)c1ccc2c(c1)OCO2` showed a half-life of 0.4 h. Moreover, the IC50 stood at 0.62 nM on Integrin alpha-V/beta-3 [3]; 0.26 nM against Integrin alpha-V/beta-3 [1]; 2670 nM at Integrin alpha-V/beta-6; 22 nM in [2]; 2.9 nM against Integrin alpha-V/beta-5. In addition, the Vd in data set [5] amounted to 0.897 L/kg. Also, the clearance in data set [6] turned out to be 78 mL/min/kg. For the same molecule, the AUC/dose in the data set with Rattus norvegicus is 60 ng·h/mL/(mg/kg). Also, the bioavailability in data set [7] stood at 29%.
